“And” between values parts separate entries of the source, which are not always exact repeats. Equal values may be shown once. “Also recorded” adds a separate entry of the source.
Experiments:
HepG2 cells = assay: Nexin assay for early and late apoptosis (flow cytometry); assay type: cell-based; conditions: 50 μM Q10, 24 hours
From the text: (§1) The 7AAD dye will enter into cells with permeabilized cell membranes; primarily those cells that are in late apoptosis. Annexin-V-PE is a dye that binds to Phosphotidyl serine, which is exposed on the outer surface of the plasma membrane in early apoptotic cells. The Nexin reagent thus can be used to differentiate between different populations of apoptotic cells in a flow cytometer.

MCF-7 cells = assay: as above; assay type: cell-based; conditions: 50 μM and 100 μM Q10, 24 hours
From the text: as §1

PaCa2 cells = assay: as above; assay type: cell-based; conditions: 50 μM and 100 μM Q10, 24 hours
From the text: as §1

Hif1 alpha = assay: Western blot of Hif1 alpha levels in cells treated with Coenzyme Q10; assay type: cell-based, human; conditions: whole cell lysates of normal cells
Experimental: The Actin blots were stripped by incubating for 30 minutes with methanol, followed by two 10 minute washes with TBS-T, then 30 minutes of incubation with Stripping buffer at 50 deg C., and followed by two washes with 100 ml or more of TBS-T for 30′ each. The blots were scanned in laser scanner to check for complete stripping. The blots were activated with methanol for 5 seconds, washed with water for 5 minutes, and TBST for 15 minutes. The blots were blocked for 1 hour with 5% blocking reagent in TBS-T at room temperature and then washed 3 times with TBS-T (1×-15′; 2×5′ each) and probed with the primary antibody for Hif 1 alpha, Caspase 3 or PDHB in 5% BSA (at 1:200 by incubation overnight at 4 deg C. with gentle shaking. The primary antibody for Hif 1 alpha (Abcam ab2185; antirabbit) was at 1:500 dilution in 5% BSA. The primary antibody for Caspase 3 (Santacruz sc7272; antirabbit) was at 1:200 dilution in 5% BSA. The primary antibody for Pyruvate Dehydrogenase beta (PDHB) (Novus Biologicals H00005162-M03; antimouse) was at 1:500 dilution in 5% BSA. After incubation with primary antibodies, the membranes were washed 3 times with TBS-T (1×-15′; 2×5′ each) and probed with the secondary antibody (PDHB antimouse; Hif 1a and Caspase 3 antirabbit; 1:10,000 dilution) for 1 h at room temperature. […]

HK-2 cells = assay: Diabetes PCR array in cell model for diabetes; assay type: cell-based, human
Experimental: (§2) The HK-2 and HASMC cells are normally maintained in culture at 5.5 mM glucose, which is a concentration that corresponds to a range considered normal in human blood. However, in order to simulate a diabetic environment, both cell lines were subsequently maintained at 22 mM glucose, which corresponds to the range observed in human blood associated with chronic hyperglycemia. The cells were subsequently allowed to propagate over 3 passages so that the intracellular regulation processes were functionally adapted to mimic a diabetic state. The choice of cell line was based on the physiologic influence of diabetes on renal dysfunction and progression to end-stage renal disease (ESRD) in addition to the progressive pathophysiology of a compromised cardiovascular function.
The Diabetes PCR array (SABiosciences) offers a screen for 84 genes simultaneously.
A stringent analysis of the Real time PCR data of the HK-2 samples on the Diabetes Arrays (Cat #PAHS-023E, SABiosciences Frederick Md.) was made to exclude all results where gene regulation was not at least a two-fold regulation over HK-2 normal untreated cells with a p value of less than 0.05.

HASMC cells = assay: Mitochondria PCR arrays in cell model for diabetes; assay type: cell-based, human; conditions: HASMC-(H) 22 mM glucose
Experimental: as §2
Differential expression of mitochondrial genes in diabetes was assayed using the mitochondria arrays (Cat#PAHS 087E, SABisociences Frederick Md.).

key proteins = assay: Summary of key proteins modulated by Q10

## COC1=C(OC)C(=O)C(C/C=C(\C)CC/C=C(\C)CC/C=C(\C)CC/C=C(\C)CC/C=C(\C)CC/C=C(\C)CC/C=C(\C)CC/C=C(\C)CC/C=C(\C)CCC=C(C)C)=C(C)C1=O [Q10, Coenzyme Q10]
HepG2 cells
  increase of gated population in late apoptotic and early apoptotic stages: about 20%
MCF-7 cells
  apoptotic population: increase only in early apoptotic population
PaCa2 cells
  increase in early and late apoptotic cells: 5-10 % of gated cells
Hif1 alpha
  Hif1a lower band: showed a decrease
HK-2 cells; HK2(H) cells at 22 mM glucose, particularly 100 μM Coenzyme Q10
  CEACAM1 RNA transcript: highly upregulated
HK-2 cells; diabetic HK-2 cells
  insulin receptor (INSR) expression: increase in expression
HASMC cells; 50 uM Coenzyme Q10
  BCL2L1 gene regulation (mitochondria array): −2.7863
  MFN1 gene regulation (mitochondria array): −1.2585
  PMAIP1 gene regulation (mitochondria array): −6.8132
  SLC25A1 gene regulation (mitochondria array): −1.834
  SLC25A13 gene regulation (mitochondria array): −1.5
  SLC25A19 gene regulation (mitochondria array): −1.4257
  SLC25A22 gene regulation (mitochondria array): −1.9839
  TIMM44 gene regulation (mitochondria array): −2.3214
  TOMM40 gene regulation (mitochondria array): −2.0922
  TSPO gene regulation (mitochondria array): −2.0586
HASMC cells; 100 μM Coenzyme Q10
  BCL2L1 gene regulation (mitochondria array): −2.3001
  MFN1 gene regulation (mitochondria array): −2.2632
  PMAIP1 gene regulation (mitochondria array): −4.352
  SLC25A1 gene regulation (mitochondria array): −3.0001
  SLC25A13 gene regulation (mitochondria array): −1.5245
  SLC25A19 gene regulation (mitochondria array): −2.1214
  SLC25A22 gene regulation (mitochondria array): −10.3747
  TIMM44 gene regulation (mitochondria array): −1.9931
  TOMM40 gene regulation (mitochondria array): −2.2684
  TSPO gene regulation (mitochondria array): −2.3647
Key proteins
  Key proteins modulated: Apoptotic response: Bcl-xl, Bcl-xS, BNIP-2, Bcl-2, Birc6,; also recorded: Bcl-2-L11 (Bim), XIAP, BRAF, Bax,; also recorded: c-Jun, Bmf, PUMA, cMyc
  Key proteins modulated: Biosynthetic pathway: COQ1, COQ3, COQ6, prenyltransferase, and 4-hydroxybenzoate
  Key proteins modulated: Oxidative phosphorylation metabolism: Cytochrome c, complex I, complex II,; also recorded: complex III, complex IV,
  Key proteins modulated: Pentose Phosphate Pathway: transaldolase 1
  Key proteins modulated: Transcription factors: HNF4alpha

Source: US20210002725A1, “METHODS FOR THE DIAGNOSIS OF METABOLIC DISORDERS USING EPIMETABOLIC SHIFTERS, MULTIDIMENSIONAL INTRACELLULAR MOLECULES, OR ENVIRONMENTAL INFLUENCES” (Berg LLC, priority 2009, published 2021)
